“And” between values parts separate entries of the source, which are not always exact repeats. Equal values may be shown once.
How the values were obtained:
Test in all cases: radiometric filter-binding kinase assay, Kinase HotSpot
Conditions in all cases: compound 0.5 µM; ATP 10 µM
LIMK1 (human) = LIMK1 (human) (UniProt P53667)
SGK3 (human) = SGK3 (human) (UniProt Q96BR1)
PIM1 (human) = PIM1 (human) (UniProt P11309)
MAPK12 (human) = MAPK12 (human) (UniProt P53778)
CAMKK2 (human) = CAMKK2 (human) (UniProt Q96RR4)
ACVR1B (human) = ACVR1B (human) (UniProt P36896)
MAP2K1 (human) = MAP2K1 (human) (UniProt Q02750)
ERBB4 (human) = ERBB4 (human) (UniProt Q15303)
MAPK11 (human) = MAPK11 (human) (UniProt Q15759)
PRKG1 (human) = PRKG1 (human) (UniProt Q13976)
SRPK1 (human) = SRPK1 (human) (UniProt Q96SB4)
FGFR4 (human) = FGFR4 (human) (UniProt P22455)
FGFR3 (human) = FGFR3 (human) (UniProt P22607)
PAK2 (human) = PAK2 (human) (UniProt Q13177)
PLK3 (human) = PLK3 (human) (UniProt Q9H4B4)
CSNK1G1 (human) = CSNK1G1 (human) (UniProt Q9HCP0)
MYLK (human) = MYLK (human) (UniProt Q15746)
MAP3K9 (human) = MAP3K9 (human) (UniProt P80192)
PTK2B (human) = PTK2B (human) (UniProt Q14289)
CDK6 CCND3 (human) = CDK6 CCND3 (human) (UniProt P30281+Q00534)
STK3 (human) = STK3 (human) (UniProt Q13188)
BMX (human) = BMX (human) (UniProt P51813)
MATK (human) = MATK (human) (UniProt P42679)
RPS6KA3 KD1 KD2 (human) = RPS6KA3 KD1 KD2 (human) (UniProt P51812)
AKT3 (human) = AKT3 (human) (UniProt Q9Y243)
[1] = target: JAK1 JH1 catalytic (human) (UniProt P23458)
MAPK8 (human) = MAPK8 (human) (UniProt P45983)
TAOK3 (human) = TAOK3 (human) (UniProt Q9H2K8)
SRMS (human) = SRMS (human) (UniProt Q9H3Y6)
RPS6KA5 KD2 (human) = RPS6KA5 KD2 (human) (UniProt O75582)
PRKD2 (human) = PRKD2 (human) (UniProt Q9BZL6)
PRKG2 (human) = PRKG2 (human) (UniProt Q13237)
RIPK2 (human) = RIPK2 (human) (UniProt O43353)
ERBB2 (human) = ERBB2 (human) (UniProt P04626)
SRC (human) = SRC (human) (UniProt P12931)
FGFR2 (human) = FGFR2 (human) (UniProt P21802)
MARK4 (human) = MARK4 (human) (UniProt Q96L34)
CSNK1A1 (human) = CSNK1A1 (human) (UniProt P48729)
TNK2 (human) = TNK2 (human) (UniProt Q07912)
CSK (human) = CSK (human) (UniProt P41240)
CDK1 CCNA2 (human) = CDK1 CCNA2 (human) (UniProt P06493+P20248)
TGFBR1 (human) = TGFBR1 (human) (UniProt P36897)

FGFR4 (human), sequence (P22455 whole entry, looked up): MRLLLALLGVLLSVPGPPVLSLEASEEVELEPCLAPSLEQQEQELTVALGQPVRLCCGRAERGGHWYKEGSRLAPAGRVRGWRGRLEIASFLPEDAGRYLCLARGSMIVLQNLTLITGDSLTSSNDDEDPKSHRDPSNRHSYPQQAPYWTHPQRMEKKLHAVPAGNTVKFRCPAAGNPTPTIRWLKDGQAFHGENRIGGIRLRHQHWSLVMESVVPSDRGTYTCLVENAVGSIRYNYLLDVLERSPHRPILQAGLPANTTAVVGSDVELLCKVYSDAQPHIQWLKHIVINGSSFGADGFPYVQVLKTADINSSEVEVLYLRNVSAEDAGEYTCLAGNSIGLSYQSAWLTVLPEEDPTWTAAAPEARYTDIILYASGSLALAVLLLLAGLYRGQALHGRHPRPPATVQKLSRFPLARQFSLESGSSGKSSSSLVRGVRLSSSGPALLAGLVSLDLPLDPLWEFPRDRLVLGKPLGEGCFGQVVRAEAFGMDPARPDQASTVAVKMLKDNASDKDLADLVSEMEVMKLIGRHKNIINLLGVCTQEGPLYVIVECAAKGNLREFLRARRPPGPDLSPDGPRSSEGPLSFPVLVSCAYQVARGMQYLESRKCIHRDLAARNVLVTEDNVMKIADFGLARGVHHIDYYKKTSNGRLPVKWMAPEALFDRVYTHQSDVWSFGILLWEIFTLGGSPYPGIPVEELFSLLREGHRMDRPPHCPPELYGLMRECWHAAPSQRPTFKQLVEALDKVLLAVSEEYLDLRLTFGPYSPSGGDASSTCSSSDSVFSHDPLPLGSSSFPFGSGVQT
ACVR1B (human), sequence (P36896 whole entry, looked up): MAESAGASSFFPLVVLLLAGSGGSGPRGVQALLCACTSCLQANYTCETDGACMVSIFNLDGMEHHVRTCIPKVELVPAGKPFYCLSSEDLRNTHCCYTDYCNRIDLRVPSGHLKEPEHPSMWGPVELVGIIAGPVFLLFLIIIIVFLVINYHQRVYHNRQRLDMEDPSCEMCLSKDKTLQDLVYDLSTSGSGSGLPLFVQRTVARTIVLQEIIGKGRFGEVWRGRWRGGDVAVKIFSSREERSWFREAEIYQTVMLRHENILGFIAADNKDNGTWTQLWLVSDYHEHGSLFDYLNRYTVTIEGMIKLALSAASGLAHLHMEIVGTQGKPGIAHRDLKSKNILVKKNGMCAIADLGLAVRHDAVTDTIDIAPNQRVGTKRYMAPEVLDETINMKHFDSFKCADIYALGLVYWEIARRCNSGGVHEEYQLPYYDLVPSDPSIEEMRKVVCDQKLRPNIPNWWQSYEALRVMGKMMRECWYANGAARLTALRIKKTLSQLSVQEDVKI
MARK4 (human), sequence (Q96L34 whole entry, looked up): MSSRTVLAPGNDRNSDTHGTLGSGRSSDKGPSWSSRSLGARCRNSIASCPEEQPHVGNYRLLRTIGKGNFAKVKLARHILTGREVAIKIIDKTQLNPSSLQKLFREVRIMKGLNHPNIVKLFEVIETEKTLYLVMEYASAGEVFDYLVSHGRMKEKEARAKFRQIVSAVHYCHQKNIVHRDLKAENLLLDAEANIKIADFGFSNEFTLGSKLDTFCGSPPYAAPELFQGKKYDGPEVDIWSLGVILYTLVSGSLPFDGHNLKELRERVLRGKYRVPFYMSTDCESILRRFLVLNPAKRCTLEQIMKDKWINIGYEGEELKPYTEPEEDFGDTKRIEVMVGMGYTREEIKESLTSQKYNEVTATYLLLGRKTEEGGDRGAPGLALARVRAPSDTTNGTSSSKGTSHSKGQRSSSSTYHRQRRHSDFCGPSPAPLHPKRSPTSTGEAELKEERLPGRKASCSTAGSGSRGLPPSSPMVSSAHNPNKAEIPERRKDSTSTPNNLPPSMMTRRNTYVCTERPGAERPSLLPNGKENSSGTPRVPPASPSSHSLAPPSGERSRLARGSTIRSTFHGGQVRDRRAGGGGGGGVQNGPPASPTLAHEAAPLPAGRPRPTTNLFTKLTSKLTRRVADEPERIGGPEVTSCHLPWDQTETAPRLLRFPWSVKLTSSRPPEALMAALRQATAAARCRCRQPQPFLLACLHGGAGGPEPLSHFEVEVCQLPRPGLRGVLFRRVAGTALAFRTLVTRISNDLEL
CSNK1A1 (human), sequence (P48729 whole entry, looked up): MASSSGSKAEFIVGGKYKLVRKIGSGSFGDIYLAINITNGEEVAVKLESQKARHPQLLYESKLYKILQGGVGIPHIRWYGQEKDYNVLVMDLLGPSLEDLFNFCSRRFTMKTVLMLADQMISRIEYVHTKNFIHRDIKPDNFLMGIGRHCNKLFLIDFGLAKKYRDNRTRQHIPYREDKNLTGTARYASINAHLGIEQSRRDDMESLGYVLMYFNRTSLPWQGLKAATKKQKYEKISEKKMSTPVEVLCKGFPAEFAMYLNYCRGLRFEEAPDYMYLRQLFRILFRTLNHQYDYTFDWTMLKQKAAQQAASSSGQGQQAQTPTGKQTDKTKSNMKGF
CAMKK2 (human), sequence (Q96RR4 whole entry, looked up): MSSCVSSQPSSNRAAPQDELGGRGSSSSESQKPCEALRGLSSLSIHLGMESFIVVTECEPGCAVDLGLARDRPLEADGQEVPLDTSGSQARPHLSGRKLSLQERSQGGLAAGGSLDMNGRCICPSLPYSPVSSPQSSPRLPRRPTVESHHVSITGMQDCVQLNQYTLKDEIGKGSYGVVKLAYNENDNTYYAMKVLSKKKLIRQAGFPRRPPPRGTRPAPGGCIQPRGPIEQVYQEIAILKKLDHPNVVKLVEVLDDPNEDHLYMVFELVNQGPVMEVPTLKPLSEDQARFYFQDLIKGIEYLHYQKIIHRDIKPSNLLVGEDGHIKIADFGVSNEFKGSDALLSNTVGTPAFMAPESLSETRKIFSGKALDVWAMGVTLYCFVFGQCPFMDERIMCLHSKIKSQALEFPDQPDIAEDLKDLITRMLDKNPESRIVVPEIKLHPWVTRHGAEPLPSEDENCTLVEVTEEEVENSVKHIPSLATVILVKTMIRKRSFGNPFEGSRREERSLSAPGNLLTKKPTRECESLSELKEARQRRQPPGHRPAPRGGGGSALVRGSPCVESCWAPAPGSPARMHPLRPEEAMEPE
MAPK11 (human), sequence (Q15759 whole entry, looked up): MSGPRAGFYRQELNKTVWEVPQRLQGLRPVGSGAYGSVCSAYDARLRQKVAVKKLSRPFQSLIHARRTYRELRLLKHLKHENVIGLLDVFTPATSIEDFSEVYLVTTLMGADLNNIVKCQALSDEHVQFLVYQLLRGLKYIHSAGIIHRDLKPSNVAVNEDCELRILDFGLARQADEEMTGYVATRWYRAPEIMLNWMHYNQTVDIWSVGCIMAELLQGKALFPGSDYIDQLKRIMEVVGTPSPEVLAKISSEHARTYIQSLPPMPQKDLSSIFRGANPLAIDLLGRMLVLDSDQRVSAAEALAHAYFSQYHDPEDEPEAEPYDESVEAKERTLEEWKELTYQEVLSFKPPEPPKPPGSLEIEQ
STK3 (human), sequence (Q13188 whole entry, looked up): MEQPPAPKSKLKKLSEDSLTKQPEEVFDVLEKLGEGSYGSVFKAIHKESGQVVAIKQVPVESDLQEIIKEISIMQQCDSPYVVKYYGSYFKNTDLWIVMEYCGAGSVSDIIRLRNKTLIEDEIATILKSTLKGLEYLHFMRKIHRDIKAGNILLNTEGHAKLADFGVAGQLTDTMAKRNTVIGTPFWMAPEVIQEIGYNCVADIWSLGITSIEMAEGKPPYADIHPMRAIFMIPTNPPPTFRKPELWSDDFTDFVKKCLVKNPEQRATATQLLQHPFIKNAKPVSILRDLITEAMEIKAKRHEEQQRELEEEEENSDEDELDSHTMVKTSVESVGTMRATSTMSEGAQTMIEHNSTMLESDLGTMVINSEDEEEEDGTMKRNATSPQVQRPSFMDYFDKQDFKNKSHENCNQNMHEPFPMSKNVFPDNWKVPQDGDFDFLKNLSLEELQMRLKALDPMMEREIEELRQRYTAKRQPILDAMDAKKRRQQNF
TNK2 (human), sequence (Q07912 whole entry, looked up): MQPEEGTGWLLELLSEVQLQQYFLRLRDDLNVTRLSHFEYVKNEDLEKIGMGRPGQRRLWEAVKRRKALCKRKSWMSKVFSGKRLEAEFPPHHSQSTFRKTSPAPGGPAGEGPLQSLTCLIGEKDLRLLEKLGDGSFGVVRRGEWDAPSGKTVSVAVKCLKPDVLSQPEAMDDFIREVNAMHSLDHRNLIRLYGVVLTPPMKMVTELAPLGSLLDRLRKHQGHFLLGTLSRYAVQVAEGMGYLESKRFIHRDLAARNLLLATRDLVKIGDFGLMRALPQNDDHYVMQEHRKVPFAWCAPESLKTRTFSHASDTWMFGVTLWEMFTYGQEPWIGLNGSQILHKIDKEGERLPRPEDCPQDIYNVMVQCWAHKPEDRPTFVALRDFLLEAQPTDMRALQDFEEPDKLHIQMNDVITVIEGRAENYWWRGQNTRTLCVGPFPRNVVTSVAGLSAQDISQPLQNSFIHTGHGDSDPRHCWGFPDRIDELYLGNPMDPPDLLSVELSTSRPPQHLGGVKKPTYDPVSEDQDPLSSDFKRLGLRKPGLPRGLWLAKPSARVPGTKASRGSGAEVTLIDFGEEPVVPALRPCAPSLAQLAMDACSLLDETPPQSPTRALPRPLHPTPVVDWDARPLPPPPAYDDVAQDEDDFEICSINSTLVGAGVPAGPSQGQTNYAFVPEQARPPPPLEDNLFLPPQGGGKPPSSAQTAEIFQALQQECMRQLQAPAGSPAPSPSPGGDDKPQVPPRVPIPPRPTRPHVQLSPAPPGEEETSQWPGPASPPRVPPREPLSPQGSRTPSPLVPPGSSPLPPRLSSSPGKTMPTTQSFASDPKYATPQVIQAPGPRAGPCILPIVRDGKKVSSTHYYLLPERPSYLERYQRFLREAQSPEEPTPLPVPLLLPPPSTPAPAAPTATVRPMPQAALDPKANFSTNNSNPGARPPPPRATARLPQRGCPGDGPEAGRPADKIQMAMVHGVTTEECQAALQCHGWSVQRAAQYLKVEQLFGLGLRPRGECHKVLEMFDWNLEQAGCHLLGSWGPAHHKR

Compound: Cn1cnc2cc3c(Nc4cccc(Br)c4)ncnc3cc21
- residual activity (LIMK1 (human)): 99%
- residual activity (SGK3 (human)): 107%
- residual activity (PIM1 (human)): 73.8%
- residual activity (MAPK12 (human)): 92%
- residual activity (CAMKK2 (human)): 99.6%
- residual activity (ACVR1B (human)): 111%
- residual activity (MAP2K1 (human)): 113%
- residual activity (ERBB4 (human)): 75.5%
- residual activity (MAPK11 (human)): 85.9%
- residual activity (PRKG1 (human)): 97.8% and 98%
- residual activity (SRPK1 (human)): 96.1%
- residual activity (FGFR4 (human)): 94.1%
- residual activity (FGFR3 (human)): 98.6%
- residual activity (PAK2 (human)): 99.8%
- residual activity (PLK3 (human)): 99.8%
- residual activity (CSNK1G1 (human)): 104%
- residual activity (MYLK (human)): 83.3%
- residual activity (MAP3K9 (human)): 79.8%
- residual activity (PTK2B (human)): 92.7%
- residual activity (CDK6 CCND3 (human)): 107%
- residual activity (STK3 (human)): 89.9%
- residual activity (BMX (human)): 96.6%
- residual activity (MATK (human)): 85.9%
- residual activity (RPS6KA3 KD1 KD2 (human)): 105%
- residual activity (AKT3 (human)): 89.5%
- residual activity [1]: 96.4%
- residual activity (MAPK8 (human)): 96.9%
- residual activity (TAOK3 (human)): 97.6%
- residual activity (SRMS (human)): 84%
- residual activity (RPS6KA5 KD2 (human)): 93.5%
- residual activity (PRKD2 (human)): 82.6%
- residual activity (PRKG2 (human)): 63.6%
- residual activity (RIPK2 (human)): 35.6%
- residual activity (ERBB2 (human)): 47.4%
- residual activity (SRC (human)): 81.2%
- residual activity (FGFR2 (human)): 98%
- residual activity (MARK4 (human)): 105%
- residual activity (CSNK1A1 (human)): 102%
- residual activity (TNK2 (human)): 87.3%
- residual activity (CSK (human)): 88.1%
- residual activity (CDK1 CCNA2 (human)): 95.8%
- residual activity (TGFBR1 (human)): 97.6%

Compound: Oc1ccc(Nc2nc(-c3ccc(Cl)cc3)cs2)cc1
- residual activity (LIMK1 (human)): 90.5%
- residual activity (SGK3 (human)): 98%
- residual activity (PIM1 (human)): 103%
- residual activity (MAPK12 (human)): 106%
- residual activity (CAMKK2 (human)): 101%
- residual activity (ACVR1B (human)): 89.5%
- residual activity (MAP2K1 (human)): 90.7%
- residual activity (ERBB4 (human)): 83.3%
- residual activity (MAPK11 (human)): 105%
- residual activity (PRKG1 (human)): 94.1% and 98.5%
- residual activity (SRPK1 (human)): 103%
- residual activity (FGFR4 (human)): 71.6%
- residual activity (FGFR3 (human)): 96.5%
- residual activity (PAK2 (human)): 87%
- residual activity (PLK3 (human)): 97.4%
- residual activity (CSNK1G1 (human)): 94.5%
- residual activity (MYLK (human)): 104%
- residual activity (MAP3K9 (human)): 80.9%
- residual activity (PTK2B (human)): 100%
- residual activity (CDK6 CCND3 (human)): 109%
- residual activity (STK3 (human)): 114%
- residual activity (BMX (human)): 103%
- residual activity (MATK (human)): 95.6%
- residual activity (RPS6KA3 KD1 KD2 (human)): 107%
- residual activity (AKT3 (human)): 105%
- residual activity [1]: 97.1%
- residual activity (MAPK8 (human)): 100%
- residual activity (TAOK3 (human)): 101%
- residual activity (SRMS (human)): 106%
- residual activity (RPS6KA5 KD2 (human)): 109%
- residual activity (PRKD2 (human)): 102%
- residual activity (PRKG2 (human)): 92.9%
- residual activity (RIPK2 (human)): 96.4%
- residual activity (ERBB2 (human)): 96.9%
- residual activity (SRC (human)): 95.1%
- residual activity (FGFR2 (human)): 104%
- residual activity (MARK4 (human)): 103%
- residual activity (CSNK1A1 (human)): 96.4%
- residual activity (TNK2 (human)): 103%
- residual activity (CSK (human)): 101%
- residual activity (CDK1 CCNA2 (human)): 91.2%
- residual activity (TGFBR1 (human)): 99.9%

Compound: Cc1nc2cc3nc(-c4cccs4)cnc3cc2n1C
- residual activity (LIMK1 (human)): 112%
- residual activity (SGK3 (human)): 105%
- residual activity (PIM1 (human)): 103%
- residual activity (MAPK12 (human)): 103%
- residual activity (CAMKK2 (human)): 112%
- residual activity (ACVR1B (human)): 104%
- residual activity (MAP2K1 (human)): 89.7%
- residual activity (ERBB4 (human)): 95%
- residual activity (MAPK11 (human)): 101%
- residual activity (PRKG1 (human)): 98.5% and 99.7%
- residual activity (SRPK1 (human)): 107%
- residual activity (FGFR4 (human)): 96.3%
- residual activity (FGFR3 (human)): 67.1%
- residual activity (PAK2 (human)): 102%
- residual activity (PLK3 (human)): 95.6%
- residual activity (CSNK1G1 (human)): 92.2%
- residual activity (MYLK (human)): 97%
- residual activity (MAP3K9 (human)): 90.3%
- residual activity (PTK2B (human)): 96.4%
- residual activity (CDK6 CCND3 (human)): 87.8%
- residual activity (STK3 (human)): 97.1%
- residual activity (BMX (human)): 117%
- residual activity (MATK (human)): 100%
- residual activity (RPS6KA3 KD1 KD2 (human)): 96.3%
- residual activity (AKT3 (human)): 112%
- residual activity [1]: 105%
- residual activity (MAPK8 (human)): 93.7%
- residual activity (TAOK3 (human)): 116%
- residual activity (SRMS (human)): 95.4%
- residual activity (RPS6KA5 KD2 (human)): 109%
- residual activity (PRKD2 (human)): 106%
- residual activity (PRKG2 (human)): 87.7%
- residual activity (RIPK2 (human)): 89.1%
- residual activity (ERBB2 (human)): 92%
- residual activity (SRC (human)): 89.9%
- residual activity (FGFR2 (human)): 91.8%
- residual activity (MARK4 (human)): 105%
- residual activity (CSNK1A1 (human)): 96.7%
- residual activity (TNK2 (human)): 100%
- residual activity (CSK (human)): 101%
- residual activity (CDK1 CCNA2 (human)): 102%
- residual activity (TGFBR1 (human)): 98.7%

Compound: O=C(CCCc1ccc(-c2ccccc2F)cc1)Nc1ccc(O)cc1
- residual activity (LIMK1 (human)): 106%
- residual activity (SGK3 (human)): 106%
- residual activity (PIM1 (human)): 97.9%
- residual activity (MAPK12 (human)): 104%
- residual activity (CAMKK2 (human)): 86.6%
- residual activity (ACVR1B (human)): 95.9%
- residual activity (MAP2K1 (human)): 104%
- residual activity (ERBB4 (human)): 107%
- residual activity (MAPK11 (human)): 79.7%
- residual activity (PRKG1 (human)): 95.5% and 99.9%
- residual activity (SRPK1 (human)): 98.6%
- residual activity (FGFR4 (human)): 106%
- residual activity (FGFR3 (human)): 103%
- residual activity (PAK2 (human)): 101%
- residual activity (PLK3 (human)): 95%
- residual activity (CSNK1G1 (human)): 104%
- residual activity (MYLK (human)): 98.6%
- residual activity (MAP3K9 (human)): 100%
- residual activity (PTK2B (human)): 98.8%
- residual activity (CDK6 CCND3 (human)): 103%
- residual activity (STK3 (human)): 94.8%
- residual activity (BMX (human)): 99.6%
- residual activity (MATK (human)): 92.2%
- residual activity (RPS6KA3 KD1 KD2 (human)): 95.8%
- residual activity (AKT3 (human)): 111%
- residual activity [1]: 98.2%
- residual activity (MAPK8 (human)): 103%
- residual activity (TAOK3 (human)): 91.4%
- residual activity (SRMS (human)): 101%
- residual activity (RPS6KA5 KD2 (human)): 95.2%
- residual activity (PRKD2 (human)): 97.6%
- residual activity (PRKG2 (human)): 102%
- residual activity (RIPK2 (human)): 84.5%
- residual activity (ERBB2 (human)): 101%
- residual activity (SRC (human)): 93.7%
- residual activity (FGFR2 (human)): 102%
- residual activity (MARK4 (human)): 124%
- residual activity (CSNK1A1 (human)): 101%
- residual activity (TNK2 (human)): 99.2%
- residual activity (CSK (human)): 88%
- residual activity (CDK1 CCNA2 (human)): 93.7%
- residual activity (TGFBR1 (human)): 102%

Reference: the kinase profiling compilation of Christmann-Franck et al. (2016)
